In ChEMBL document CHEMBL6074661, “Structural Modification and Pharmacological Evaluation of (Thiadiazol-2-yl)pyrazines as Novel Piezo1 Agonists for the Intervention of Disuse Osteoporosis” (J Med Chem, 2024):
In brackets after ≈: the same amount, converted by molar mass. Activity calls are given as the source filed them. The rule behind the calls is not given here.

Assays:
[1] = Apparent permeability in MDCK cells; assay type: ADME, cell-based, Canis lupus familiaris; conditions: dog
[2] = Metabolic stability in dog liver microsomes assessed as half life at 10 uM measured for 60 mins by LC-MS/MS analysis; assay type: ADME, Canis lupus familiaris, Microsome
[3] = Toxicity in hind-limb unloading Sprague-Dawley rat model assessed as change in liver function at 5 uM/kg, ip administered on day 1, 4, 7, 10, 13 and measured on day 14; assay type: organism-based; conditions: in vivo, 336 h, time 14 day
[4] = Toxicity in hind-limb unloading Sprague-Dawley rat model assessed as change in kidney function at 5 uM/kg, ip administered on day 1, 4, 7, 10, 13 and measured on day 14; assay type: organism-based; conditions: in vivo, 336 h, time 14 day
[5] = Metabolic stability in dog liver microsomes assessed as intrinsic clearance at 10 uM measured for 60 mins by LC-MS/MS analysis; assay type: ADME, Canis lupus familiaris, Microsome; conditions: read-out: CLH
[6] = target: T1, Piezo-type mechanosensitive ion channel component 1 (Mus musculus, UniProt E2JF22); assay: Agonist activity at Piezo1 in mouse C3H 10T1/2 cells assessed as influx of calcium ions incubated for 2 hrs by Cal-bryte 520 AM dye based analysis; assay type: cell-based
Target sequence in this assay (E2JF22 whole entry): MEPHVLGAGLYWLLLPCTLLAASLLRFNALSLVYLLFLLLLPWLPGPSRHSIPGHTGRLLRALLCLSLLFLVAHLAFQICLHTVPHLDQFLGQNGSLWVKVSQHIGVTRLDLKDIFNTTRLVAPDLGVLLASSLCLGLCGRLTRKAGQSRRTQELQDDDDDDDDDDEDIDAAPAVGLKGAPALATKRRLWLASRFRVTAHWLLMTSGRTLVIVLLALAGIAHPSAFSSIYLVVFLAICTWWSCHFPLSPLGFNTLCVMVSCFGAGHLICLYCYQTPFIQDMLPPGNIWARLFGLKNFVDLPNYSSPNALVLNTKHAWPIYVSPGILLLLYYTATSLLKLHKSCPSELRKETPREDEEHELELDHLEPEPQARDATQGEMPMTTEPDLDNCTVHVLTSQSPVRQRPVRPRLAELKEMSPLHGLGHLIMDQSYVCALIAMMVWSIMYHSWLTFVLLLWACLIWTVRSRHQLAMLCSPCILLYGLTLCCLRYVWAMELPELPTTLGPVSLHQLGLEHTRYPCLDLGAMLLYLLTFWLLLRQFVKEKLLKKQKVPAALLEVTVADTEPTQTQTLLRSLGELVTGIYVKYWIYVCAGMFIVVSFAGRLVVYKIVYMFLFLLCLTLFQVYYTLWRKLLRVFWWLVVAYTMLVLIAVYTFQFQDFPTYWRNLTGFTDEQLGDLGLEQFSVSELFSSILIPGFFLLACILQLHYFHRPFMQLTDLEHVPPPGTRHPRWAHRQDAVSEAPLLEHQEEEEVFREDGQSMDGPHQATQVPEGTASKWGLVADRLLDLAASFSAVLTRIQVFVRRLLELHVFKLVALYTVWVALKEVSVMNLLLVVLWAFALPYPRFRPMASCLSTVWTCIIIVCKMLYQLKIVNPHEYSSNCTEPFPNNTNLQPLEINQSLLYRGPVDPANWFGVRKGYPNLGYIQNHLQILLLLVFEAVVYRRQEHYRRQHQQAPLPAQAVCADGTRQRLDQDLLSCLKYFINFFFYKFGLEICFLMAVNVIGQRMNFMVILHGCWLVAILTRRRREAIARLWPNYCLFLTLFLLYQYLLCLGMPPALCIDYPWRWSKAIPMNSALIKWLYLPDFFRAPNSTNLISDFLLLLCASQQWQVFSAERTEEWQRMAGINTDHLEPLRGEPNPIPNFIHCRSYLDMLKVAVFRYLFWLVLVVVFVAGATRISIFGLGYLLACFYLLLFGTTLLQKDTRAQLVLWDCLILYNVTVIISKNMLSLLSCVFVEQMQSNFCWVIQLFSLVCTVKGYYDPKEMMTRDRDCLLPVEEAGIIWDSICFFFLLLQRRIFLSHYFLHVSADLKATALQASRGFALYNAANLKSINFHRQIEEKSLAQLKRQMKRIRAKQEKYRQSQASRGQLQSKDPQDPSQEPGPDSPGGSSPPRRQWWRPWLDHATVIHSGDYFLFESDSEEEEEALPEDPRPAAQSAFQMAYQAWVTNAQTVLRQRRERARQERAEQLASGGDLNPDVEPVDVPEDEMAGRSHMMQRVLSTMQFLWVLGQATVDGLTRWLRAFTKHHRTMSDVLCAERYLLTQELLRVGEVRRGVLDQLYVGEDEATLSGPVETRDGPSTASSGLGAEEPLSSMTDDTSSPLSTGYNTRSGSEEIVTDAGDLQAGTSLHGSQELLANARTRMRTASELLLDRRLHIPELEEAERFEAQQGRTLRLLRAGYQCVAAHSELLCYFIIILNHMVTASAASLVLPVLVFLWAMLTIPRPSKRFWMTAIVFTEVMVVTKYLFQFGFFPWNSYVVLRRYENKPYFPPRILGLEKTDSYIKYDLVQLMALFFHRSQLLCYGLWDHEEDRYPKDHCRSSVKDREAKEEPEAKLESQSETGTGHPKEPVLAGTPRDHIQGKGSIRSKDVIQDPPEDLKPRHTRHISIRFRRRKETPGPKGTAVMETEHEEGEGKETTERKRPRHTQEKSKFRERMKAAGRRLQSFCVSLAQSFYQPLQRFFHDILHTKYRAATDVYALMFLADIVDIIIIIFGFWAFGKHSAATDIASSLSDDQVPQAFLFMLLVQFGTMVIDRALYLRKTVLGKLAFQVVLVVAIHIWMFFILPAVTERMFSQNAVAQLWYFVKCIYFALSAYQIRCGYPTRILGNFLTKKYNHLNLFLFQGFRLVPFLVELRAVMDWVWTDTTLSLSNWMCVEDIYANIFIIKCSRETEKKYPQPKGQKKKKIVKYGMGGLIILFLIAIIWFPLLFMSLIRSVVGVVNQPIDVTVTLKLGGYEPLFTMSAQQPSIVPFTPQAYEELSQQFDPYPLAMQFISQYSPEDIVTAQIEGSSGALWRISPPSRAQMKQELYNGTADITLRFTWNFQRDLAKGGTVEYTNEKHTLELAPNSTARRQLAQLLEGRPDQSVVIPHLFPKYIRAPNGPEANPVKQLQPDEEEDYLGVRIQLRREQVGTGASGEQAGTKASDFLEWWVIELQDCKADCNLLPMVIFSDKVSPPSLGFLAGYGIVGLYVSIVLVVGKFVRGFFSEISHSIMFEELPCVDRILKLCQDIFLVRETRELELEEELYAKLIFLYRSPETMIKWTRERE

[7] = Metabolic stability in mouse liver microsomes assessed as half life at 10 uM measured for 60 mins by LC-MS/MS analysis; assay type: ADME, Microsome
[8] = Aqueous solubility of compound at pH 7.4 incubated for 10 mins by HPLC analysis; assay type: physicochemical; conditions: aqueous medium
[9] = Metabolic stability in mouse liver microsomes assessed as intrinsic clearance at 10 uM measured for 60 mins by LC-MS/MS analysis; assay type: ADME, Microsome; conditions: read-out: CLH
[10] = Metabolic stability in human liver microsomes assessed as half life at 10 uM measured for 60 mins by LC-MS/MS analysis; assay type: ADME, Microsome
[11] = Metabolic stability in human liver microsomes assessed as intrinsic clearance at 10 uM measured for 60 mins by LC-MS/MS analysis; assay type: ADME, Microsome; conditions: read-out: CLH
[12] = target: Piezo-type mechanosensitive ion channel component 1 (Mus musculus) (UniProt E2JF22); assay: Agonist activity at Piezo1 in mouse C3H 10T1/2 cells assessed as influx of calcium ions by measuring change in ratio of calcium fluorescence at 20 uM incubated for 2 hrs by Cal-bryte 520 AM dye based analysis relative to control; assay type: cell-based
[13] = target: Piezo-type mechanosensitive ion channel component 1 (Mus musculus) (UniProt E2JF22); assay: Potency index, ratio of Yoda1 EC50 to test compound […] for agonist activity at Piezo1 in mouse C3H 10T1/2 cells assessed as influx of calcium ions incubated for 2 hrs by Cal-bryte 520 AM dye based analysis; assay type: cell-based; conditions: filed as agonist, tested as the 2H-labelled form
Rattus norvegicus [14] = assay: Inhibition of disuse osteoporosis in hind-limb unloading Sprague-Dawley rat model assessed as decrease in trabecular separation at 5 uM/kg, ip administered on day 1, 4, 7, 10, 13 and measured on day 14 by micro-CT analysis; assay type: functional, organism-based; conditions: time 14.0 day, tested as the 2H-labelled form
Rattus norvegicus [15] = assay: Inhibition of disuse osteoporosis in hind-limb unloading Sprague-Dawley rat model assessed as increase in trabecular number at 5 uM/kg, ip administered on day 1, 4, 7, 10, 13 and measured on day 14 by micro-CT analysis; assay type: functional, organism-based; conditions: time 14.0 day, tested as the 2H-labelled form
BMSC [16] = assay: Induction of osteogenesis in BMSC cells (unknown origin) assessed as increase in Osx mRNA level at 5 uM incubated for 3 days by RT-qPCR analysis; assay type: functional, cell-based; conditions: time 3.0 day, tested as the 2H-labelled form
BMSC [17] = assay: Induction of osteogenesis in BMSC cells (unknown origin) assessed as increase in Runx2 mRNA level incubated for 3 days by RT-qPCR analysis; assay type: functional, cell-based; conditions: dose 3-5 µM, time 3.0 day, tested as the 2H-labelled form
[18] = target: Piezo-type mechanosensitive ion channel component 1 (Rattus norvegicus) (UniProt Q0KL00); assay: Agonist activity at Piezo1 in rat BMSC cells assessed as increase in p-Erk level at 5 uM incubated for 5 mins by Western blot analysis; assay type: cell-based; conditions: filed as activator, tested as the 2H-labelled form
Rattus norvegicus [19] = assay: Induction of osteogenesis in hind-limb unloading Sprague-Dawley rat model assessed as increase in ALP fluorescent area at 5 uM/kg, ip administered on day 1, 4, 7, 10, 13 and measured on day 14 by immunofluorescence based analysis; assay type: functional, organism-based; conditions: time 14.0 day, tested as the 2H-labelled form
Rattus norvegicus [20] = assay: Inhibition of disuse osteoporosis in hind-limb unloading Sprague-Dawley rat model assessed as increase in bone volume fraction at 5 uM/kg, ip administered on day 1, 4, 7, 10, 13 and measured on day 14 by micro-CT analysis; assay type: functional, organism-based; conditions: time 14.0 day, tested as the 2H-labelled form
[21] = target: T2, Piezo-type mechanosensitive ion channel component 1 (Homo sapiens, UniProt Q92508); assay: Potency index, ratio of Yoda1 EC50 to test compound EC50 for agonist activity at Piezo1 (unknown origin); conditions: filed as agonist
[22] = target: T2, Piezo-type mechanosensitive ion channel component 1; assay: Agonist activity at human Piezo1 transfected in HEK293T cells by FLIPR assay; assay type: cell-based
[23] = target: T1, Piezo-type mechanosensitive ion channel component 1; assay: Agonist activity at mouse Piezo1 transfected in HEK293T cells expressing PZ1 mutant by fluorescence based assay; assay type: cell-based
Target sequence in this assay (E2JF22 whole entry, looked up): as the sequence (E2JF22 whole entry) above

Piezo-type mechanosensitive ion channel component 1 (Mus musculus), sequence (E2JF22 whole entry): as above
T2 sequence (Q92508 whole entry): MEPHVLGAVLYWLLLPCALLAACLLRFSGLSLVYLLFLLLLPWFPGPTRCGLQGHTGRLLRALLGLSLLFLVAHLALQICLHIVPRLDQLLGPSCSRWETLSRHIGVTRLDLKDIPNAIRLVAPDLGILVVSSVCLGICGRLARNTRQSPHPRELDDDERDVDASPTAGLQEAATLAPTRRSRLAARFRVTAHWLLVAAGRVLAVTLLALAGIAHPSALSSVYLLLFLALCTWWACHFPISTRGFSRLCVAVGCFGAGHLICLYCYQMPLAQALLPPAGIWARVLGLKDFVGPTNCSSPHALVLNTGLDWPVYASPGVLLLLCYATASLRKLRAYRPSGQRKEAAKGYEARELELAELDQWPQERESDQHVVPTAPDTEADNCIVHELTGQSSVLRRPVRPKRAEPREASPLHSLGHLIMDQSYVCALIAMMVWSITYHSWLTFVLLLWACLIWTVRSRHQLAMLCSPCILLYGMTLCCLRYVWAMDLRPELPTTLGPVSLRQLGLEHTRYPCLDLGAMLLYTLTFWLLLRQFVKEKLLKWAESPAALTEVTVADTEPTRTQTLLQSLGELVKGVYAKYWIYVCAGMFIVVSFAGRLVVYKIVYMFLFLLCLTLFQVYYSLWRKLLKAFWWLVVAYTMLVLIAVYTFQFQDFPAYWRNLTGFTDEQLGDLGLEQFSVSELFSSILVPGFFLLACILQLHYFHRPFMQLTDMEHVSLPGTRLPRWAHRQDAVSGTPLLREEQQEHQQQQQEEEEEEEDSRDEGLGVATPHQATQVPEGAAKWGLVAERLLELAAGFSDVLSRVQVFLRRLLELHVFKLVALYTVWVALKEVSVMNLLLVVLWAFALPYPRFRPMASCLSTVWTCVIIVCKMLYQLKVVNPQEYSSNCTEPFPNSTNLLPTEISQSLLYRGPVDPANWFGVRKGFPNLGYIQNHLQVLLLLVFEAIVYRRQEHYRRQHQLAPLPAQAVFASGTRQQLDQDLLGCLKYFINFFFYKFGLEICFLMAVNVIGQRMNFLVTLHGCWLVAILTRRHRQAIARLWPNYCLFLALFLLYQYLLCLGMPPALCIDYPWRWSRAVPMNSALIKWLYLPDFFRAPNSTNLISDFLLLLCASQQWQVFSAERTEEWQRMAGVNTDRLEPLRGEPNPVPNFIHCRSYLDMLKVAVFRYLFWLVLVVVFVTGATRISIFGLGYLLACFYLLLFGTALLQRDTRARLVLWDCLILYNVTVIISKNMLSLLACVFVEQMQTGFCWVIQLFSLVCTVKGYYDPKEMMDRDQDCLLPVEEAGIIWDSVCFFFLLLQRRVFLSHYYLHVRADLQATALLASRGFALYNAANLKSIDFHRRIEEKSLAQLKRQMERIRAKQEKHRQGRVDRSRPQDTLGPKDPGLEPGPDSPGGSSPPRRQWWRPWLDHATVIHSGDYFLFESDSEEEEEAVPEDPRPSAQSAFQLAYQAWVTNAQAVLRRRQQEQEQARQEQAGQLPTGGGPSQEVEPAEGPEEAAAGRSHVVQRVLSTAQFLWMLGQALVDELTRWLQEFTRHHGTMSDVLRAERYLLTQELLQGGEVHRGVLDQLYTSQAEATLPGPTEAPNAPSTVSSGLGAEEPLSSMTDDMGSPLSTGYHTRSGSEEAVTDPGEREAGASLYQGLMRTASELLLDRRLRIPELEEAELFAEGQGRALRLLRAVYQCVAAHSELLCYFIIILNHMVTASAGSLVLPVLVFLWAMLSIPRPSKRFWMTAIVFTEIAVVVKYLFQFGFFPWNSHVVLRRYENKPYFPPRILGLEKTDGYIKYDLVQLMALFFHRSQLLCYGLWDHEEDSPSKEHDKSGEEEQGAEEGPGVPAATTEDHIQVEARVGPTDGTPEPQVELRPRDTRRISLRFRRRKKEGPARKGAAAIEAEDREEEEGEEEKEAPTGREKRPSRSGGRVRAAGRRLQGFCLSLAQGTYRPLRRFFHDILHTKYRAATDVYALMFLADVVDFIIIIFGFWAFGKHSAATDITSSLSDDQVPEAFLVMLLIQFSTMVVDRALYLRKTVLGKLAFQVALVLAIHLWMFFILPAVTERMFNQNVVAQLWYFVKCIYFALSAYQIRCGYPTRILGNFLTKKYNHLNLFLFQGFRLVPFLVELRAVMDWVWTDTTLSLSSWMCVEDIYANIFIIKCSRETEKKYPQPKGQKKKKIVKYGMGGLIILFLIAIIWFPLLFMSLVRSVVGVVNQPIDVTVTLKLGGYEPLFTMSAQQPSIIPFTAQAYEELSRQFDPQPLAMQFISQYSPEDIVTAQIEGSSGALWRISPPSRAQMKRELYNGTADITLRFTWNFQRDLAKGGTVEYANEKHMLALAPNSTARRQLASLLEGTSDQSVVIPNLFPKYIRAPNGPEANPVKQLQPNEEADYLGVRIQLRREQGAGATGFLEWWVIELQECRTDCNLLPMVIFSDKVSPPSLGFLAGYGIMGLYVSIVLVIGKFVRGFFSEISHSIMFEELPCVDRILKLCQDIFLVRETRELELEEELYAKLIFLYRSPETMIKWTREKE

## [2H]C([2H])(Sc1nnc(-c2cnc(NC[C@@H](C)O)cn2)s1)c1c(Cl)cccc1Cl
[1]
  Papp: 21 ×10⁻⁶ cm/s
[2]
  half-life at 10 µM: 25.5 min
[3]
  Activity: Non-toxic
[4]
  Activity: Non-toxic
[5]
  microsomal CLint at 10 µM: 54.4 µL/min/mg
[6]
  EC50: 44.2 µM
[7]
  half-life at 10 µM: 15.7 min
[8]
  solubility at 10 min: 57.9 µM (≈ 24.9 µg/mL)
[9]
  microsomal CLint at 10 µM: 88.4 µL/min/mg
[10]
  half-life at 10 µM: 16.7 min
[11]
  microsomal CLint at 10 µM: 83.2 µL/min/mg

## OC1CCN(c2cnc(-c3nnc(SCc4c(Cl)cccc4Cl)s3)cn2)CC1
[12]
  Percent change in calcium fluorescence ratio relative to control: 2%

## C[C@@H](O)CNc1cnc(-c2nnc(SCc3c(Cl)cccc3Cl)s2)cn1
[13]
  Ratio EC50: 20
Rattus norvegicus [14]
  Activity: Active
Rattus norvegicus [15]
  Activity: Active
BMSC [16]
  Activity: Active
[12]; filed as agonist
  Percent change in calcium fluorescence ratio relative to control: 106%
[12]; filed as agonist, tested as the 2H-labelled form
  Percent change in calcium fluorescence ratio relative to control: 170%
BMSC [17]
  Activity: Dose-dependent-effect
[18]
  Activity: Active; The Result Indicates That Compound Emulates Mechanical Stimulation To Activate Piezo1
Rattus norvegicus [19]
  Activity: Active; Activty Reached Almost That Of The Weight-Bearing
Rattus norvegicus [20]
  Activity: Active

## OCCCNc1cnc(-c2nnc(SCc3c(Cl)cccc3Cl)s2)cn1
[12]; filed as agonist
  Percent change in calcium fluorescence ratio relative to control: 65.2%

## OCC1CN(c2cnc(-c3nnc(SCc4c(Cl)cccc4Cl)s3)cn2)C1
[12]
  Percent change in calcium fluorescence ratio relative to control: 11.6%

## C[C@@H](O)CNc1cnc(-c2nnc(SCc3ccc4ncoc4c3)s2)cn1
[12]; filed as agonist
  Percent change in calcium fluorescence ratio relative to control: 50.4%

## O=C(O)c1ccc(-c2nnc(SCc3c(Cl)cccc3Cl)s2)cc1
[21]
  Ratio EC50: 4

## O=C1CC2(CCN(c3cnc(-c4nnc(SCc5ccc6ncoc6c5)s4)cn3)CC2)CN1
[12]
  Percent change in calcium fluorescence ratio relative to control: 31.2%

## C[C@@H](O)CNc1cnc(-c2nnc(SCc3ccc4nnn(C)c4c3)s2)cn1
[12]
  Percent change in calcium fluorescence ratio relative to control: 35.4%

## Cn1nnc2ccc(CSc3nnc(-c4cnc(N5CCC6(CC5)CNC(=O)C6)cn4)s3)cc21
[12]
  Percent change in calcium fluorescence ratio relative to control: 38.8%

## C[C@@H](O)CNc1ccc(-c2nnc(SCc3c(Cl)cccc3Cl)s2)nn1
[12]; filed as agonist
  Percent change in calcium fluorescence ratio relative to control: 71.3%

## FC1(F)CN(c2cnc(-c3nnc(SCc4c(Cl)cccc4Cl)s3)cn2)C1
[12]
  Percent change in calcium fluorescence ratio relative to control: -8%

## Clc1cccc(Cl)c1CSc1nnc(-c2cnccn2)s1
[1]
  Papp: 38 ×10⁻⁶ cm/s
[2]
  half-life at 10 µM: 1.33 min
[5]
  microsomal CLint at 10 µM: 1040 µL/min/mg
[6]
  EC50: 2.21 µM
[7]
  half-life at 10 µM: < 5 min
[12]
  Percent change in calcium fluorescence ratio relative to control: 30.7%
[8]
  solubility at 10 min: 3.9 µM (≈ 1.39 µg/mL)
[9]
  microsomal CLint at 10 µM: > 277 µL/min/mg
[10]
  half-life at 10 µM: 5.55 min
[22]
  EC50: 17.1 µM
[11]
  microsomal CLint at 10 µM: 250 µL/min/mg

## C[C@@H](O)CNc1cnc(-c2nnc(SCc3c(F)cccc3F)s2)cn1
[12]
  Percent change in calcium fluorescence ratio relative to control: 21%

## Clc1cccc(Cl)c1CSc1nnc(-c2cnc(N3CC4(COC4)C3)cn2)s1
[12]
  Percent change in calcium fluorescence ratio relative to control: 0.1%

## Clc1cccc(Cl)c1CSc1nnc(-c2cnc(Br)cn2)s1
[12]
  Percent change in calcium fluorescence ratio relative to control: 8%

## OCCOCCNc1cnc(-c2nnc(SCc3c(Cl)cccc3Cl)s2)cn1
[12]; filed as agonist
  Percent change in calcium fluorescence ratio relative to control: 56.3%

## C[C@@H](O)CNc1cnc(-c2nnc(SCc3ccc4scnc4c3)s2)cn1
[12]
  Percent change in calcium fluorescence ratio relative to control: 15.4%

## C[C@@H](O)CNc1cncc(-c2nnc(SCc3c(Cl)cccc3Cl)s2)n1
[12]; filed as agonist
  Percent change in calcium fluorescence ratio relative to control: 49.7%

## Cn1ncc2cc(CSc3nnc(-c4cnc(N5CCC6(CC5)CNC(=O)C6)cn4)s3)ccc21
[12]; filed as agonist
  Percent change in calcium fluorescence ratio relative to control: 71.6%

## FC(F)(F)c1cccc(Cl)c1CSc1nnc(-c2cnccn2)o1
[21]
  Ratio EC50: 1.25

## Cc1nnc(CNC(=O)Nc2ccc(C3CCCCC3)cc2)o1
[23]
  EC50: > 150 µM

## CC1(O)CN(c2cnc(-c3nnc(SCc4c(Cl)cccc4Cl)s3)cn2)C1
[12]
  Percent change in calcium fluorescence ratio relative to control: 16.1%

## O=C1CC2(CCN(c3cnc(-c4nnc(SCc5ccc6scnc6c5)s4)cn3)CC2)CN1
[12]
  Percent change in calcium fluorescence ratio relative to control: 7.7%

## OC1CN(c2cnc(-c3nnc(SCc4c(Cl)cccc4Cl)s3)cn2)C1
[12]
  Percent change in calcium fluorescence ratio relative to control: 36%

## O[C@@H]1CN(c2cnc(-c3nnc(SCc4c(Cl)cccc4Cl)s3)cn2)C[C@@H]1O
[12]; filed as agonist
  Percent change in calcium fluorescence ratio relative to control: 74.5%

## O[C@H]1CCN(c2cnc(-c3nnc(SCc4c(Cl)cccc4Cl)s3)cn2)C1
[12]
  Percent change in calcium fluorescence ratio relative to control: 30.4%

## C[C@@H](O)CNc1cnc(-c2nnc(SC(c3c(Cl)cccc3Cl)C3CC3)s2)cn1 (stereo partly drawn)
[12]; filed as agonist
  Percent change in calcium fluorescence ratio relative to control: 64.6%

## C[C@H](O)CNc1cnc(-c2nnc(SCc3c(Cl)cccc3Cl)s2)cn1
[12]; filed as agonist
  Percent change in calcium fluorescence ratio relative to control: 76.6%

## CC(Sc1nnc(-c2cnc(NC[C@@H](C)O)cn2)s1)c1c(Cl)cccc1Cl (stereo partly drawn)
[12]; filed as agonist
  Percent change in calcium fluorescence ratio relative to control: 164%

## C[C@@H](O)CNc1cnc(-c2nnc(SCc3ccccc3Cl)s2)cn1
[12]; filed as agonist
  Percent change in calcium fluorescence ratio relative to control: 61.9%

## C[C@@H](O)CNc1cnc(-c2nnc(SCc3ccc4c(cnn4C)c3)s2)cn1
[12]; filed as agonist
  Percent change in calcium fluorescence ratio relative to control: 73.5%

## O=C1CC2(CCN(c3cnc(-c4nnc(SCc5c(Cl)cccc5Cl)s4)cn3)CC2)CN1
[12]; filed as agonist
  Percent change in calcium fluorescence ratio relative to control: 77.3%

## C[C@@H](O)CNc1cnc(-c2nnc(SCc3c(Cl)ccnc3Cl)s2)cn1
[12]; filed as agonist
  Percent change in calcium fluorescence ratio relative to control: 69.7%

## C[C@@H](O)CNc1cnc(-c2nnc(SCc3c(Cl)ccc(F)c3Cl)s2)cn1
[12]; filed as agonist
  Percent change in calcium fluorescence ratio relative to control: 91.4%

## NC1=NC(=O)[C@H](CC(=O)Nc2ccc(SC(F)F)cc2)S1
[23]
  EC50: 12.9 µM

## CCC(Sc1nnc(-c2cnc(NC[C@@H](C)O)cn2)s1)c1c(Cl)cccc1Cl (stereo partly drawn)
[12]; filed as agonist
  Percent change in calcium fluorescence ratio relative to control: 91.3%

## C[C@@H](O)CNc1ncc(-c2nnc(SCc3c(Cl)cccc3Cl)s2)cn1
[12]; filed as agonist
  Percent change in calcium fluorescence ratio relative to control: 41.7%

## CC(C)(O)[C@H](F)CNc1cnc(-c2nnc(SCc3c(Cl)cccc3Cl)s2)cn1
[12]; filed as agonist
  Percent change in calcium fluorescence ratio relative to control: 45.4%
